Measured values from PubChem BioAssay AID1259407 (Chemical Carcinogenesis Research Information System (CCRIS), 2018).
The source made the active and inactive calls. How the calls were made is not given here.

Test system: CCRIS mutagenicity, Ames/micronucleus/aberration tests
Test: CCRIS mutagenicity studies
[1] = Test System: AMES SALMONELLA TYPHIMURIUM, Strain/Indicator: TA98, Metabolic Activation: NONE, Method: PREINCUBATION
[2] = Test System: AMES SALMONELLA TYPHIMURIUM, Strain/Indicator: TA100, Metabolic Activation: NONE, Method: PREINCUBATION
[3] = Test System: AMES SALMONELLA TYPHIMURIUM, Strain/Indicator: TA98, Metabolic Activation: NONE, Method: STANDARD PLATE
[4] = Test System: AMES SALMONELLA TYPHIMURIUM, Strain/Indicator: TA98, Metabolic Activation: RAT, LIVER, S-9, AROCLOR 1254, Method: STANDARD PLATE
[5] = Test System: AMES SALMONELLA TYPHIMURIUM, Strain/Indicator: TA100, Metabolic Activation: RAT, LIVER, S-9, AROCLOR 1254, Method: STANDARD PLATE

SMILES: CCCCCCCCn1sccc1=O
- mutagenic call (Test System: AMES SALMONELLA TYPHIMURIUM, Strain/Indicator: TA97, Metabolic Activation: HAMSTER, LIVER, S-9, AROCLOR 1254 (10%), Method: PREINCUBATION): inactive; negative
- mutagenic call (Test System: AMES SALMONELLA TYPHIMURIUM, Strain/Indicator: TA97, Metabolic Activation: HAMSTER, LIVER, S-9, AROCLOR 1254 (30%), Method: PREINCUBATION): inactive; negative
- mutagenic call (Test System: AMES SALMONELLA TYPHIMURIUM, Strain/Indicator: TA97, Metabolic Activation: NONE, Method: PREINCUBATION): inactive; negative
- mutagenic call (Test System: AMES SALMONELLA TYPHIMURIUM, Strain/Indicator: TA97, Metabolic Activation: RAT, LIVER, S-9, AROCLOR 1254 (10 OR 30%), Method: PREINCUBATION): inactive; negative
- mutagenic call (Test System: AMES SALMONELLA TYPHIMURIUM, Strain/Indicator: TA98, Metabolic Activation: HAMSTER, LIVER, S-9, AROCLOR 1254 (10%), Method: PREINCUBATION): inactive; negative
- mutagenic call (Test System: AMES SALMONELLA TYPHIMURIUM, Strain/Indicator: TA98, Metabolic Activation: HAMSTER, LIVER, S-9, AROCLOR 1254 (30%), Method: PREINCUBATION): inactive; negative
- mutagenic call [1]: inactive; negative
- mutagenic call (Test System: AMES SALMONELLA TYPHIMURIUM, Strain/Indicator: TA98, Metabolic Activation: RAT, LIVER, S-9, AROCLOR 1254 (10 OR 30%), Method: PREINCUBATION): inactive; negative
- mutagenic call (Test System: AMES SALMONELLA TYPHIMURIUM, Strain/Indicator: TA100, Metabolic Activation: HAMSTER, LIVER, S-9, AROCLOR 1254 (10%), Method: PREINCUBATION): inactive; negative
- mutagenic call (Test System: AMES SALMONELLA TYPHIMURIUM, Strain/Indicator: TA100, Metabolic Activation: HAMSTER, LIVER, S-9, AROCLOR 1254 (30%), Method: PREINCUBATION): inactive; negative
- mutagenic call [2]: inactive; negative
- mutagenic call (Test System: AMES SALMONELLA TYPHIMURIUM, Strain/Indicator: TA100, Metabolic Activation: RAT, LIVER, S-9, AROCLOR 1254 (10 OR 30%), Method: PREINCUBATION): inactive; negative
- mutagenic call (Test System: AMES SALMONELLA TYPHIMURIUM, Strain/Indicator: TA1535, Metabolic Activation: HAMSTER, LIVER, S-9, AROCLOR 1254 (10%), Method: PREINCUBATION): inactive; negative
- mutagenic call (Test System: AMES SALMONELLA TYPHIMURIUM, Strain/Indicator: TA1535, Metabolic Activation: HAMSTER, LIVER, S-9, AROCLOR 1254 (30%), Method: PREINCUBATION): inactive; negative
- mutagenic call (Test System: AMES SALMONELLA TYPHIMURIUM, Strain/Indicator: TA1535, Metabolic Activation: NONE, Method: PREINCUBATION): inactive; negative
- mutagenic call (Test System: AMES SALMONELLA TYPHIMURIUM, Strain/Indicator: TA1535, Metabolic Activation: RAT, LIVER, S-9, AROCLOR 1254 (10%), Method: PREINCUBATION): inactive; negative
- mutagenic call (Test System: AMES SALMONELLA TYPHIMURIUM, Strain/Indicator: TA1535, Metabolic Activation: RAT, LIVER, S-9, AROCLOR 1254 (30%), Method: PREINCUBATION): inactive; negative
- mutagenic call (Test System: AMES SALMONELLA TYPHIMURIUM, Strain/Indicator: TA1537, Metabolic Activation: HAMSTER, LIVER, S-9, AROCLOR 1254 (30%), Method: PREINCUBATION): inactive; negative
- mutagenic call (Test System: AMES SALMONELLA TYPHIMURIUM, Strain/Indicator: TA1537, Metabolic Activation: NONE, Method: PREINCUBATION): inactive; negative
- mutagenic call (Test System: AMES SALMONELLA TYPHIMURIUM, Strain/Indicator: TA1537, Metabolic Activation: RAT, LIVER, S-9, AROCLOR 1254 (30%), Method: PREINCUBATION): inactive; negative

SMILES: Cn1c(N)nc2cc(O)ccc21
- mutagenic call (Test System: AMES SALMONELLA TYPHIMURIUM, Strain/Indicator: TA98, Metabolic Activation: RAT, LIVER, S-9, AROCLOR 1254, Method: PREINCUBATION): inactive; negative
- mutagenic call (Test System: AMES SALMONELLA TYPHIMURIUM, Strain/Indicator: TA100, Metabolic Activation: RAT, LIVER, S-9, AROCLOR 1254, Method: PREINCUBATION): inactive; negative

SMILES: c1ccc2c(c1)ccc1c2ccc2cccnc21
- mutagenic call [3]: inactive; negative
- mutagenic call [4]: active; positive
- mutagenic call [5]: active; positive

SMILES: COC1=C(OC)C(=O)C(C)=CC1=O
- mutagenic call [1]: inactive; negative
- mutagenic call (Test System: AMES SALMONELLA TYPHIMURIUM, Strain/Indicator: TA98, Metabolic Activation: RAT, LIVER, S-9, PHENOBARBITAL AND 5,6-BENZOFLAVONE, Method: PREINCUBATION): inactive; negative
- mutagenic call [2]: inactive; negative
- mutagenic call (Test System: AMES SALMONELLA TYPHIMURIUM, Strain/Indicator: TA100, Metabolic Activation: RAT, LIVER, S-9, PHENOBARBITAL AND 5,6-BENZOFLAVONE, Method: PREINCUBATION): inactive; negative
- mutagenic call (Test System: AMES SALMONELLA TYPHIMURIUM, Strain/Indicator: TA102, Metabolic Activation: NONE, Method: PREINCUBATION): inactive; negative
- mutagenic call (Test System: AMES SALMONELLA TYPHIMURIUM, Strain/Indicator: TA102, Metabolic Activation: RAT, LIVER, S-9, PHENOBARBITAL AND 5,6-BENZOFLAVONE, Method: PREINCUBATION): inactive; negative
- mutagenic call (Test System: AMES SALMONELLA TYPHIMURIUM, Strain/Indicator: TA104, Metabolic Activation: NONE, Method: PREINCUBATION): inactive; negative
- mutagenic call (Test System: AMES SALMONELLA TYPHIMURIUM, Strain/Indicator: TA104, Metabolic Activation: RAT, LIVER, S-9, PHENOBARBITAL AND 5,6-BENZOFLAVONE, Method: PREINCUBATION): inactive; negative
- mutagenic call (Test System: AMES SALMONELLA TYPHIMURIUM, Strain/Indicator: TA2637, Metabolic Activation: NONE, Method: PREINCUBATION): inactive; negative
- mutagenic call (Test System: AMES SALMONELLA TYPHIMURIUM, Strain/Indicator: TA2637, Metabolic Activation: RAT, LIVER, S-9, PHENOBARBITAL AND 5,6-BENZOFLAVONE, Method: PREINCUBATION): inactive; negative

SMILES: O=C1CCc2c1cc(C(F)(F)F)c1c3c(ccc21)[C@H](O)[C@@H](O)C=C3
- mutagenic call (Test System: AMES SALMONELLA TYPHIMURIUM, Strain/Indicator: TA100, Metabolic Activation: RAT, LIVER, S-9, AROCLOR 1254): active; positive

SMILES: C[C@]12C=CC3=C4CCC(=O)C=C4CC[C@H]3[C@@H]1CC[C@H]2O
- mutagenic call [3]: inactive; negative
- mutagenic call [4]: inactive; negative
- mutagenic call (Test System: AMES SALMONELLA TYPHIMURIUM, Strain/Indicator: TA100, Metabolic Activation: NONE, Method: STANDARD PLATE): inactive; negative
- mutagenic call [5]: inactive; negative
- mutagenic call (Test System: AMES SALMONELLA TYPHIMURIUM, Strain/Indicator: TA1535, Metabolic Activation: NONE, Method: STANDARD PLATE): inactive; negative
- mutagenic call (Test System: AMES SALMONELLA TYPHIMURIUM, Strain/Indicator: TA1535, Metabolic Activation: RAT, LIVER, S-9, AROCLOR 1254, Method: STANDARD PLATE): inactive; negative
- mutagenic call (Test System: AMES SALMONELLA TYPHIMURIUM, Strain/Indicator: TA1537, Metabolic Activation: NONE, Method: STANDARD PLATE): inactive; negative
- mutagenic call (Test System: AMES SALMONELLA TYPHIMURIUM, Strain/Indicator: TA1537, Metabolic Activation: RAT, LIVER, S-9, AROCLOR 1254, Method: STANDARD PLATE): inactive; negative
- mutagenic call (Test System: AMES SALMONELLA TYPHIMURIUM, Strain/Indicator: TA1538, Metabolic Activation: NONE, Method: STANDARD PLATE): inactive; negative
- mutagenic call (Test System: AMES SALMONELLA TYPHIMURIUM, Strain/Indicator: TA1538, Metabolic Activation: RAT, LIVER, S-9, AROCLOR 1254, Method: STANDARD PLATE): inactive; negative
- mutagenic call (Test System: CHO/HGPRT, Strain/Indicator: CHO-K1-BH4, Metabolic Activation: NONE, Method: STANDARD PLATE): inactive; negative
- mutagenic call (Test System: CHO/HGPRT, Strain/Indicator: CHO-K1-BH4, Metabolic Activation: RAT, LIVER, S-9, AROCLOR 1254, Method: STANDARD PLATE): inactive; negative
